Experimental data: ChEMBL document CHEMBL3272218, “Biologically active derivatives of angiotensin for labeling cellular receptors” (J Med Chem, 1978)
Peptide text beside a SMILES is read from it. * marks the point of attachment. X2 = O=C(O)c1cc(NC(=S)*)ccc1-c1c2ccc(=O)cc-2oc2cc(O)ccc12; X1 = O=Cc1ccc(C(=O)*)cc1

Molecular target: T1, Type-1 angiotensin II receptor (Oryctolagus cuniculus) (UniProt P34976)
T1 sequence (whole entry): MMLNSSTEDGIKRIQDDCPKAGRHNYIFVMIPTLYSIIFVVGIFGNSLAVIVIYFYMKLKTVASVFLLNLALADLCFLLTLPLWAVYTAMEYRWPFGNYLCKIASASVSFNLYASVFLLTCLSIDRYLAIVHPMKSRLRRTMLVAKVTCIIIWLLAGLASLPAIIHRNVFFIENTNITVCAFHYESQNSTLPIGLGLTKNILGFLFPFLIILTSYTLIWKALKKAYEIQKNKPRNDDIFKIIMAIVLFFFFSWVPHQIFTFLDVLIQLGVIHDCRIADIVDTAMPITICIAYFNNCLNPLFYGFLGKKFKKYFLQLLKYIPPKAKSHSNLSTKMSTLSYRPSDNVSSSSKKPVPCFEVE
Test: Relative binding affinity of the compound assessed as ratio of [Asp1,Ile5]angiotensin II ED50 to compound ED50 for angiotensin 2 receptor in rabbit aortic strips

Row | SMILES | relative binding affinity (RBA)
1 | CC(C)[C@H](NC(=O)[C@H](CCCNC(=N)N)NC(=O)[C@@H](N)CC(N)=O)C(=O)N[C@@H](Cc1ccc(O)cc1)C(=O)N[C@H](C(=O)N[C@@H](Cc1c[nH]cn1)C(=O)N1CCC[C@H]1C(=O)N[C@@H](Cc1ccccc1)C(=O)O)C(C)C (H-NRVYVHPF-OH) | 23
2 | CC(C)[C@H](NC(=O)[C@H](CCCNC(=N)N)NC(=O)[C@H](CC(N)=O)NC(=O)c1ccc(C=O)cc1)C(=O)N[C@@H](Cc1ccc(O)cc1)C(=O)N[C@H](C(=O)N[C@@H](Cc1cnc[nH]1)C(=O)N1CCC[C@H]1C(=O)N[C@@H](Cc1ccccc1)C(=O)O)C(C)C (X1-NRVYVHPF-OH) | 8
3 | CC(C)[C@H](NC(=O)[C@H](CCCNC(=N)N)NC(=O)[C@H](CC(N)=O)NC(=S)Nc1ccc(-c2c3ccc(=O)cc-3oc3cc(O)ccc23)c(C(=O)O)c1)C(=O)N[C@@H](Cc1ccc(O)cc1)C(=O)N[C@H](C(=O)N[C@@H](Cc1cnc[nH]1)C(=O)N1CCC[C@H]1C(=O)N[C@@H](Cc1ccccc1)C(=O)O)C(C)C (X2-NRVYVHPF-OH) | 1
4 | CCCC[C@H](NC(=O)c1cc(N=[N+]=[N-])ccc1[N+](=O)[O-])C(=O)N[C@@H](CC(=O)O)C(=O)N[C@@H](CCCNC(=N)N)C(=O)N[C@H](C(=O)N[C@@H](Cc1ccc(O)cc1)C(=O)N[C@H](C(=O)N[C@@H](Cc1cnc[nH]1)C(=O)N1CCC[C@H]1C(=O)N[C@@H](Cc1ccccc1)C(=O)O)[C@@H](C)CC)C(C)C | 0.5
5 | CC[C@H](C)[C@H](NC(=O)[C@H](Cc1ccc(O)cc1)NC(=O)[C@@H](N)C(C)C)C(=O)N[C@@H](Cc1cnc[nH]1)C(=O)N1CCC[C@H]1C(=O)N[C@@H](Cc1ccccc1)C(=O)O | 0.03
6 | CC[C@H](C)[C@H](NC(=O)[C@H](Cc1ccc(O)cc1)NC(=O)[C@@H](NC(=O)[C@@H](N)CCCN=C(N)N)C(C)C)C(=O)N[C@@H](Cc1c[nH]cn1)C(=O)N1CCC[C@H]1C(=O)N[C@@H](Cc1ccccc1)C(=O)O | 2
7 | CC[C@H](C)[C@H](NC(=O)[C@H](Cc1ccc(O)cc1)NC(=O)[C@@H](NC(=O)[C@H](CCCNC(=N)N)NC(=O)[C@H](CC(=O)O)N1C=C(c2ccccc2)C(=O)C1(O)c1ccccc1)C(C)C)C(=O)N[C@@H](Cc1cnc[nH]1)C(=O)N1CCC[C@H]1C(=O)N[C@@H](Cc1ccccc1)C(=O)O (some centres not stated) | 3
